Source: the supplement of paper PMC10307832

Legend:
Test in all cases: relative viability (nuclei count vs DMSO), 5 days (fraction); higher = more cells survive
ABC-1 = test system: ABC-1
Method in brief: (§1)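 Relative viability was taken as the ratio of nuclei in treated wells to nuclei in vehicle wells. Lung cancer cell lines in 1536-well plates received compounds by pin tool one day after seeding, either one drug alone or a fixed anchor-drug dose plus five library-drug doses (not always all listed) in √10 steps. Nuclei were counted on 4× images after 5 days of treatment, and values are medians of duplicate plates.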

CAL-12T = test system: CAL-12T
Method in brief: as §1

COR-L 105 = test system: COR-L 105
Method in brief: as §1

ChaGo-K-1 = test system: ChaGo-K-1
Method in brief: as §1

EMC-BAC-2 = test system: EMC-BAC-2
Method in brief: as §1

EPLC-272H = test system: EPLC-272H
Method in brief: as §1

HCC-15 = test system: HCC-15
Method in brief: as §1

HCC-78 = test system: HCC-78
Method in brief: as §1

HOP-62 = test system: HOP-62
Method in brief: as §1

LXF-289 = test system: LXF-289
Method in brief: as §1

NCI-H1666 = test system: NCI-H1666
Method in brief: as §1

NCI-H1755 = test system: NCI-H1755
Method in brief: as §1

NCI-H1915 = test system: NCI-H1915
Method in brief: as §1

NCI-H1975 = test system: NCI-H1975
Method in brief: as §1

NCI-H2023 = test system: NCI-H2023
Method in brief: as §1

NCI-H2085 = test system: NCI-H2085
Method in brief: as §1

NCI-H2126 = test system: NCI-H2126
Method in brief: as §1

NCI-H3122 = test system: NCI-H3122
Method in brief: as §1

NCI-H322M = test system: NCI-H322M
Method in brief: as §1

NCI-H358 = test system: NCI-H358
Method in brief: as §1

NCI-H441 = test system: NCI-H441
Method in brief: as §1

UMC-11 = test system: UMC-11
Method in brief: as §1

Work on `O=c1cc(N2CCOCC2)oc2c(-c3cccc4c3sc3ccccc34)cccc12` + N=C(N)NC(=N)NCCc1ccccc1 [Phenformin] (partner 250 µM) yielded a relative viability (ABC-1; first compound 0.01 µM) of 0.228, a relative viability (ABC-1; first compound 0.03162 µM) of 0.258 and a relative viability (ABC-1; first compound 0.1 µM) of 0.225. It also gave a relative viability (ABC-1; first compound 0.3162 µM) of 0.28, a relative viability (ABC-1; first compound 1 µM) of 0.266 and a relative viability (CAL-12T; first compound 0.01 µM) of 0.519. The relative viability (CAL-12T; first compound 0.03162 µM) was 0.629, the relative viability (CAL-12T; first compound 0.1 µM) was 0.607 and the relative viability (CAL-12T; first compound 0.3162 µM) was 0.575. For the same compound, the relative viability (CAL-12T; first compound 1 µM) was 0.547, the relative viability (COR-L 105; first compound 0.01 µM) was 0.462 and the relative viability (COR-L 105; first compound 0.03162 µM) was 0.497. For the same compound, the relative viability (COR-L 105; first compound 0.1 µM) was 0.607, the relative viability (COR-L 105; first compound 0.3162 µM) was 0.568 and the relative viability (COR-L 105; first compound 1 µM) was 0.383. For the same compound, the relative viability (ChaGo-K-1; first compound 0.01 µM) was 0.401, the relative viability (ChaGo-K-1; first compound 0.03162 µM) was 0.579 and the relative viability (ChaGo-K-1; first compound 0.1 µM) was 0.386. It also gave a relative viability (ChaGo-K-1; first compound 0.3162 µM) of 0.547, a relative viability (ChaGo-K-1; first compound 1 µM) of 0.468 and a relative viability (EMC-BAC-2; first compound 0.01 µM) of 0.423. For the same compound, the relative viability (EMC-BAC-2; first compound 0.03162 µM) was 0.57, the relative viability (EMC-BAC-2; first compound 0.1 µM) was 0.55 and the relative viability (EMC-BAC-2; first compound 0.3162 µM) was 0.556. For the same compound, the relative viability (EMC-BAC-2; first compound 1 µM) was 0.564, the relative viability (EPLC-272H; first compound 0.01 µM) was 0.394 and the relative viability (EPLC-272H; first compound 0.03162 µM) was 0.316. For the same compound, the relative viability (EPLC-272H; first compound 0.3162 µM) was 0.286, the relative viability (EPLC-272H; first compound 1 µM) was 0.298 and the relative viability (HCC-15; first compound 0.01 µM) was 0.47. For the same compound, the relative viability (HCC-15; first compound 0.03162 µM) was 0.481, the relative viability (HCC-15; first compound 0.1 µM) was 0.596 and the relative viability (HCC-15; first compound 0.3162 µM) was 0.481. The relative viability (HCC-15; first compound 1 µM) was 0.498, the relative viability (HCC-78; first compound 0.01 µM) was 0.738 and the relative viability (HCC-78; first compound 0.03162 µM) was 0.652. For the same compound, the relative viability (HCC-78; first compound 0.1 µM) was 0.388, the relative viability (HCC-78; first compound 0.3162 µM) was 0.622 and the relative viability (HCC-78; first compound 1 µM) was 0.627. It also gave a relative viability (HOP-62; first compound 0.01 µM) of 0.555, a relative viability (HOP-62; first compound 0.03162 µM) of 0.735 and a relative viability (HOP-62; first compound 0.1 µM) of 0.671. It also gave a relative viability (HOP-62; first compound 0.3162 µM) of 0.575, a relative viability (HOP-62; first compound 1 µM) of 0.704 and a relative viability (LXF-289; first compound 0.01 µM) of 0.523. It also gave a relative viability (LXF-289; first compound 0.03162 µM) of 0.55, a relative viability (LXF-289; first compound 0.1 µM) of 0.457 and a relative viability (LXF-289; first compound 0.3162 µM) of 0.498. The relative viability (LXF-289; first compound 1 µM) was 0.529, the relative viability (NCI-H1666; first compound 0.01 µM) was 0.566 and the relative viability (NCI-H1666; first compound 0.03162 µM) was 0.607. The relative viability (NCI-H1666; first compound 0.1 µM) was 0.526, the relative viability (NCI-H1666; first compound 0.3162 µM) was 0.54 and the relative viability (NCI-H1666; first compound 1 µM) was 0.584. The relative viability (NCI-H1755; first compound 0.01 µM) was 0.652, the relative viability (NCI-H1755; first compound 0.03162 µM) was 0.694 and the relative viability (NCI-H1755; first compound 0.1 µM) was 0.655. It also gave a relative viability (NCI-H1755; first compound 0.3162 µM) of 0.614, a relative viability (NCI-H1755; first compound 1 µM) of 0.605 and a relative viability (NCI-H1915; first compound 0.01 µM) of 0.381. The relative viability (NCI-H1915; first compound 0.03162 µM) was 0.387, the relative viability (NCI-H1915; first compound 0.1 µM) was 0.371 and the relative viability (NCI-H1915; first compound 0.3162 µM) was 0.386. It also gave a relative viability (NCI-H1915; first compound 1 µM) of 0.369, a relative viability (NCI-H1975; first compound 0.01 µM) of 0.414 and a relative viability (NCI-H1975; first compound 0.03162 µM) of 0.439. For the same compound, the relative viability (NCI-H1975; first compound 0.1 µM) was 0.408, the relative viability (NCI-H1975; first compound 0.3162 µM) was 0.397 and the relative viability (NCI-H1975; first compound 1 µM) was 0.418. For the same compound, the relative viability (NCI-H2023; first compound 0.01 µM) was 0.424, the relative viability (NCI-H2023; first compound 0.03162 µM) was 0.397 and the relative viability (NCI-H2023; first compound 0.1 µM) was 0.482. The relative viability (NCI-H2023; first compound 0.3162 µM) was 0.425, the relative viability (NCI-H2023; first compound 1 µM) was 0.385 and the relative viability (NCI-H2085; first compound 0.01 µM) was 0.713. For the same compound, the relative viability (NCI-H2085; first compound 0.03162 µM) was 0.708, the relative viability (NCI-H2085; first compound 0.1 µM) was 0.625 and the relative viability (NCI-H2085; first compound 0.3162 µM) was 0.745. It also gave a relative viability (NCI-H2085; first compound 1 µM) of 0.734, a relative viability (NCI-H2126; first compound 0.01 µM) of 0.513 and a relative viability (NCI-H2126; first compound 0.03162 µM) of 0.547. It also gave a relative viability (NCI-H2126; first compound 0.1 µM) of 0.53, a relative viability (NCI-H2126; first compound 0.3162 µM) of 0.554 and a relative viability (NCI-H2126; first compound 1 µM) of 0.515. For the same compound, the relative viability (NCI-H3122; first compound 0.01 µM) was 0.347, the relative viability (NCI-H3122; first compound 0.03162 µM) was 0.374 and the relative viability (NCI-H3122; first compound 0.1 µM) was 0.38. For the same compound, the relative viability (NCI-H3122; first compound 0.3162 µM) was 0.36, the relative viability (NCI-H3122; first compound 1 µM) was 0.396 and the relative viability (NCI-H322M; first compound 0.01 µM) was 0.75. For the same compound, the relative viability (NCI-H322M; first compound 0.03162 µM) was 0.781, the relative viability (NCI-H322M; first compound 0.1 µM) was 0.395 and the relative viability (NCI-H322M; first compound 0.3162 µM) was 0.814. For the same compound, the relative viability (NCI-H322M; first compound 1 µM) was 0.668, the relative viability (NCI-H358; first compound 0.01 µM) was 0.339 and the relative viability (NCI-H358; first compound 0.03162 µM) was 0.35. It also gave a relative viability (NCI-H358; first compound 0.1 µM) of 0.351, a relative viability (NCI-H358; first compound 0.3162 µM) of 0.325 and a relative viability (NCI-H358; first compound 1 µM) of 0.322. For the same compound, the relative viability (NCI-H441; first compound 0.01 µM) was 0.862, the relative viability (NCI-H441; first compound 0.03162 µM) was 0.805 and the relative viability (NCI-H441; first compound 0.1 µM) was 0.861. The relative viability (NCI-H441; first compound 0.3162 µM) was 0.811, the relative viability (NCI-H441; first compound 1 µM) was 0.771 and the relative viability (UMC-11; first compound 0.01 µM) was 0.352. For the same compound, the relative viability (UMC-11; first compound 0.03162 µM) was 0.316, the relative viability (UMC-11; first compound 0.1 µM) was 0.353 and the relative viability (UMC-11; first compound 0.3162 µM) was 0.36. For the same compound, the relative viability (UMC-11; first compound 1 µM) was 0.336.
